{"source": "paper PMC5400251", "about": "“Effect of quinoline based 1,2,3-triazole and its structural analogues on growth and virulence attributes of Candida albicans” (PLoS ONE, 2017)", "key": {"[1]": {"test_system": "C. albicans ATCC 90028 (Standard)", "experiment": "Growth assay (growth curve)", "type": "cell-based", "details": "sub-MIC (MIC/2)", "procedure": "(§1) The C. albicans cells were freshly revived by subculture on the SD agar plate. A loopful of inoculum was introduced into the SD broth and cells were grown for 16 h at 37°C before use. Approximately 2×10^3 cells/mL were then inoculated into the freshly prepared 50 mL sterile SD medium. […] At predetermined time periods (0, 2, 4, 6, 8, 10, 12, 14, 16, 18, 20 22, and 24 after incubation with agitation at 37°C), 1 mL aliquot of each sample was removed from the conical flask and growth was measured tubidometrically at 600 nm using Thermo Multiskan spectrophotometer. Optical density was recorded for each concentration against time (h)."}, "[2]": {"test_system": "C. albicans D15.9 (FLC-resistant)", "experiment": "Growth assay (growth curve)", "type": "cell-based", "details": "sub-MIC (MIC/2)", "procedure": "as §1"}, "[3]": {"test_system": "C. albicans D27 (FLC-susceptible)", "experiment": "Growth assay (growth curve)", "type": "cell-based", "details": "sub-MIC (MIC/2)", "procedure": "as §1"}}}
{"smiles": "Clc1ccc(OCc2cn(Cc3ccccc3)nn2)c2ncccc12", "note": "[Compound 3b, 8-((1-Benzyl-1H-1,2,3-triazol-4-yl)methoxy)-5-chloroquinoline]", "values": [{"measurement": "Time after which growth was observed", "setting": "[1]", "value": 20, "unit": "h"}, {"measurement": "Time after which growth was observed", "setting": "[2]", "value": 14, "unit": "h"}, {"measurement": "Time after which growth was observed", "setting": "[3]", "value": 18, "unit": "h"}, {"measurement": "melting point", "value": "148 to 149", "unit": "°C"}]}
